Reference: patent US11311538B2, “Compositions and methods for targeting cancers” (YALE UNIVERSITY, priority 2018, dated 2022)

Key:
[1] = system: HLRCC UOK 262 xenograft tumors; experiment: Tumor growth delay assay, UOK 262 xenografts; assay type: in vivo, mouse; conditions: BMN-673 0.5 mg/kg gavage daily, started at average tumor size 250 mm^3 (FIG. 4M)
From the text: In vivo efficacy studies: HEK293FT xenografts. Female athymic nu/nu mice (Hsd:Athymic Nude-Foxnlnu, Envigo) were used for all in vivo xenograft studies. Mice were quarantined for at least 1 week before experimental manipulation. Tumors were formed using shRNA-expressing versions of the tumorigenic human embryonic kidney cell-derived line, HEK293FT. HEK293FT is a subline of HEK293 cells that has been transformed by expression of SV40 Large T-antigen. […], or shCTRL (non-targeted control) expressing HEK293FT cells were implanted subcutaneously (5×10^6 cells in 0.1 cc PBS) in the right flank of nude mice. Two efficacy studies were conducted. In one, mice were randomized into treatment and non-treated groups (10 mice/group) at day 3, with treatment initiation 4 days post implant. In a second independent in vivo efficacy study, mice were injected as above with 10 mice per group, and treatment was started only once the tumor volumes reached […]. For both studies, mice were visually observed daily and tumors were measured three times per week by calipers to determine tumor volume using the formula: Volume=L×W×W×0.532. Mice were fed with a grain based rodent diet containing Doxycycline at 200 mg/kg (Bioserv, Catalog #S3888). […] P-values were determined by ANOVA with repeated measures. […]

[2] = system: shSDHB-expressing HEK293FT tumor xenografts; experiment: Tumor growth delay assay, shSDHB HEK293FT xenografts; assay type: in vivo, mouse
From the text: In vivo efficacy studies: HEK293FT xenografts. Female athymic nu/nu mice (Hsd:Athymic Nude-Foxnlnu, Envigo) were used for all in vivo xenograft studies. Mice were quarantined for at least 1 week before experimental manipulation. Tumors were formed using shRNA-expressing versions of the tumorigenic human embryonic kidney cell-derived line, HEK293FT. HEK293FT is a subline of HEK293 cells that has been transformed by expression of SV40 Large T-antigen. […], or shCTRL (non-targeted control) expressing HEK293FT cells were implanted subcutaneously (5×10^6 cells in 0.1 cc PBS) in the right flank of nude mice. Two efficacy studies were conducted. In one, mice were randomized into treatment and non-treated groups (10 mice/group) at day 3, with treatment initiation 4 days post implant. In a second independent in vivo efficacy study, mice were injected as above with 10 mice per group, and treatment was started only once the tumor volumes reached […]. For both studies, mice were visually observed daily and tumors were measured three times per week by calipers to determine tumor volume using the formula: Volume=L×W×W×0.532. Mice were fed with a grain based rodent diet containing Doxycycline at 200 mg/kg (Bioserv, Catalog #S3888). BMN-673 was solubilized in DMSO and diluted with PBS containing 10% dimethylacetamide (Sigma-Aldrich) and 6% Solutol (Sigma). BMN-673 (0.5 mg/kg, 0.2 cc), or vehicle (0.2 cc) was administered by oral gavage once daily for the duration of the experiment. Mean (geometric) tumor volume (mm^3) was plotted over time to monitor tumor growth. P-values were determined by ANOVA with repeated measures. In vivo efficacy studies: UOK 262 xenografts. Female athymic nu/nu mice (Hsd:Athymic Nude-Foxnlnu, Envigo) were used for all in vivo xenograft studies. Mice were quarantined for at least 1 week before experimental manipulation. UOK 262 cells were implanted subcutaneously using 5×10^6 cells in 0.1 cc PBS mixed with 0.1 cc of Corning Matrigel Matrix (Cat. No. 354234) per animal. Mice were randomized at day 3 day into two groups (n=10/group). […]

SMILES: Cn1ncnc1[C@H]1c2n[nH]c(=O)c3cc(F)cc(c23)N[C@@H]1c1ccc(F)cc1 [BMN-673, BMN-673 (Talazoparib)]
- tumor growth delay, UOK 262 xenografts [1]: substantial growth delay
- tumor growth vs vehicle, SDH-deficient tumors ([2]; treatment after tumors reached 95-150 mm^3, 0.5 mg/kg oral gavage once daily (FIG. 4G)): inhibited the growth
- tumor growth vs vehicle, shSDHB tumors ([2]; treatment beginning four days after implantation, 0.5 mg/kg oral gavage once daily (FIG. 4D)): robust suppression of tumor growth
- growth of SDHB-deficient tumors ([2]; two separate sets of in vivo efficacy studies, 0.5 mg/kg oral gavage once daily): significantly inhibited the growth
